# Read-outs that look alike come from different tables or passages of the source.
# How the values were obtained:
# [1] = molecular target: T1, AR (Rattus norvegicus, UniProt P15207)
# T1 sequence (P15207 1-902): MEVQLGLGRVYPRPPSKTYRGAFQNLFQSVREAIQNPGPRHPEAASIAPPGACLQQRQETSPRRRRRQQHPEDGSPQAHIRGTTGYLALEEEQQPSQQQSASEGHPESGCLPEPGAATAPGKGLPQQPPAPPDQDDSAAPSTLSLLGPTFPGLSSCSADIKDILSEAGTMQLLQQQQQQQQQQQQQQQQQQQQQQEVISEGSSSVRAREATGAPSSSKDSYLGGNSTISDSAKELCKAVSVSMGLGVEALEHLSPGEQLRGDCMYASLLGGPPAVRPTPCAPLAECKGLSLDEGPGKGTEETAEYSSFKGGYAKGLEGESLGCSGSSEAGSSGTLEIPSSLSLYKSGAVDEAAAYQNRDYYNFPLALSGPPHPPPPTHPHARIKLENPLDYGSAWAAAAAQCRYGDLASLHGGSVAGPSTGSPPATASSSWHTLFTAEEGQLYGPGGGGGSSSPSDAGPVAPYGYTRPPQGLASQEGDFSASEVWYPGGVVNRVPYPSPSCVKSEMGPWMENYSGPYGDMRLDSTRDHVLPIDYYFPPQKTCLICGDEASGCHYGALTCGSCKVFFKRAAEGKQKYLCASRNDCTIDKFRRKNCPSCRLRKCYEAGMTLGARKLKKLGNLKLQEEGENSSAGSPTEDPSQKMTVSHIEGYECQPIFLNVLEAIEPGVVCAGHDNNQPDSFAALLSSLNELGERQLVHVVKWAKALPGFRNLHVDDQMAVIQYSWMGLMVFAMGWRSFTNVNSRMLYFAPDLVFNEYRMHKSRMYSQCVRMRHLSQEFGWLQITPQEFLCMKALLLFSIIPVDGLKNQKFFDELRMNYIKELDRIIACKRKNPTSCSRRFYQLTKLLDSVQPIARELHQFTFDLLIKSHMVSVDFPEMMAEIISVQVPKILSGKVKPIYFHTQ
# [2] = molecular target: T1, AR; remark: listed apart in the source
# From the text: The basis of this assay lies in the well-defined action of androgenic agents on the maintenance and growth of muscle tissues and sexual accessory organs in animals and man. […] J. Anat. […] I. Quantitative data” Boll.-Soc. Ital. Biol. Sper. […] II. Electron-microscopic observations” Boll.-Soc. Ital. Biol. Sper. […] Castration results in rapid involution and atrophy of the prostate and seminal vesicles. This effect can be reversed by exogenous addition of androgens. Since both the levator ani muscle and the male sex organs are the tissues most responsive to the effects of androgenic agents, this model is used to determine the androgen dependent reversal of atrophy in the levator ani muscle and the sex accessory organs in immature castrated rats. […] Control vehicle • 2.
# The gain and loss of sexual organ weight reflect the changes of the cell number (DNA content) and cell mass (protein content), depending upon the serum androgen concentration. […] Therefore, measurement of organ wet weight is sufficient to indicate the bioactivity of androgens and androgen antagonist.
# [3] = molecular target: glucocorticoid receptor (Homo sapiens, UniProt P04150); conditions: concentration of ≦10 μM; 10 ng/ml PMA; A549 cells
# Sequence of glucocorticoid receptor (P04150 whole entry): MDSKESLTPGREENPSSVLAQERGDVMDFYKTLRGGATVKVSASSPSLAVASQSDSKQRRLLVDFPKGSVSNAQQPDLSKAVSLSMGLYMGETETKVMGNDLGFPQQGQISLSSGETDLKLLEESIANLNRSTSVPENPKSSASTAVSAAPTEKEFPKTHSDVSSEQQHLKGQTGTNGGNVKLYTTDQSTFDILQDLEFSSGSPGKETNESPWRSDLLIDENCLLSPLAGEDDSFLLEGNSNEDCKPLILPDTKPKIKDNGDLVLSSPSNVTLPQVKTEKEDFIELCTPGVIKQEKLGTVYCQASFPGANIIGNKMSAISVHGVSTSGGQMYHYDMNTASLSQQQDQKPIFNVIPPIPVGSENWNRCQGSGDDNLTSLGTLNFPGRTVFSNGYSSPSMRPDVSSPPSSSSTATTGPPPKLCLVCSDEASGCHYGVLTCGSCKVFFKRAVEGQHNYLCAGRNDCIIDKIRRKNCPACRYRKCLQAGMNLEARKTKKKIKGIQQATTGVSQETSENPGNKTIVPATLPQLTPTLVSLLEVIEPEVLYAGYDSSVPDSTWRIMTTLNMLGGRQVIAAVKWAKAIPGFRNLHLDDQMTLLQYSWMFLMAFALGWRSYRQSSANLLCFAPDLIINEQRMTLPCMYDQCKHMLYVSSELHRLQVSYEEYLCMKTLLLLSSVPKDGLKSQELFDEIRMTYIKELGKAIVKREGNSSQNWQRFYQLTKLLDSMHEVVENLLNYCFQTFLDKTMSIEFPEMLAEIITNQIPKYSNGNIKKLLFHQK
# Protocol: Cells are plated the day before the assay at approximately 40000 cells/well. […] Activity is measured by analysis in a luminometer as compared to control experiments treated with buffer or dexamethasome.
# [4] = test system: wild type AR (MDA 453 cells); conditions: read-out: Kd for [3H]-DHT, Scatchard analysis
# Protocol: For the saturation analysis, the difference between the total binding and the non-specific binding, is defined as specific binding.
# [formula] After correcting for non-specific binding, IC50 values are determined. […]
molecule,measurement,setting,value
"CCC(=O)O[C@H]1CC[C@H]2[C@@H]3CCC4=CC(=O)CC[C@]4(C)[C@H]3CC[C@]12C [TP, testosterone propionate]",potency relative to free T,[1]; TP versus free T,10-30 fold
same,ED80,[1]; immature castrated rat model,0.1 mg
same,EC50 (increase in organ weight),"[1]; immature castrated rats, dosing for 3 days",~0.03 mg
same,potency relative to free T,[2]; TP versus free T,10-30 fold
same,EC50 (increase in organ weight),"[2]; castrated rats, dosing for 3 days",~0.03 mg
C[C@@H]1C[C@H]2[C@@H]3CCC4=CC(=O)C=C[C@]4(C)[C@@]3(F)[C@@H](O)C[C@]2(C)[C@@]1(O)C(=O)CO [dexamethasone],suppression of activity (% inhibition of the reporter system vs buffer control with PMA),[3],65%
tritiated dihydrotestosterone [[^3H]-DHT],Kd,[4],0.7 nM

# — patent US7235563B2, “Spirocyclic compounds useful as modulators of nuclear hormone receptor function” (Bristol-Myers Squibb Company, priority 2004, dated 2007)
